Results reported in patent US20190263818A1 (LifeSci Pharmaceuticals, Inc., priority 2015, published 2019).

Target: T1, human plasma kallikrein (Homo sapiens, UniProt P03952)
T1 construct: purchased Abcam
Assay: In vitro enzyme inhibition of human plasma kallikrein (Pro-Phe-Arg-AMC cleavage)
Type: biochemical
Conditions: human Plasma Kallikrein (Abcam), substrate Pro-Phe-Arg-AMC, 37° C., Tris-HCl pH 7.5; read-out: hPK IC50
Method: The ability of the compounds disclosed herein to inhibit human plasma kallikrein activity was quantified according to the procedures below.
A 10 mM solution of the test compound was made in DMSO. This solution was serially diluted 1:5 in DMSO to yield 2000, 400, 80, 16, 3.2, 0.64, 0.128, 0.0256 and […] compound test solutions. A control tube containing only DMSO is included. 16 μL of each compound test solution was combined with 384 μL of assay buffer (50 mM Tris-HCl pH 7.5, 150 mM NaCl, 0.01% Triton X-100) to yield a “4× test compound buffer stock”. Separately, a 40 nM solution of human Plasma Kallikrein (Abcam) and a 93.6 μM solution Pro-Phe-Arg-AMC (Bachem) were made using assay buffer. These solutions are hereby referred to as 4× hPK and 2×PFR-AMC, respectively.
60 μL of each 4× test compound buffer stock was combined with 60 μL of 4× hPK to yield 120 μL of “2× test compound buffer stock/2× hPK”. 50 μL was removed from this mixture and placed into duplicate wells on a Microfluor 1Black U-bottom microtiter plate (Thermo Scientific). This plate was incubated for 5 minutes at 37° C. To each well, 50 μL of pre-warmed 2×PFR-AMC was added to start the enzymatic reaction. Cleavage of PFR-AMC was monitored in a Biotek Synergy H4 reader set at 37° C. Readings are taken every 43 seconds for 1 hour. The highest mean velocity over 20 reads (˜15 minutes) is used to calculate the IC50. The IC50 is calculated using the Gen5 (Biotek Instruments).
The ability of the compounds in Table 4 to inhibit human plasma kallikrein activity was determined.

T1 sequence (P03952 391-638 limits assumed): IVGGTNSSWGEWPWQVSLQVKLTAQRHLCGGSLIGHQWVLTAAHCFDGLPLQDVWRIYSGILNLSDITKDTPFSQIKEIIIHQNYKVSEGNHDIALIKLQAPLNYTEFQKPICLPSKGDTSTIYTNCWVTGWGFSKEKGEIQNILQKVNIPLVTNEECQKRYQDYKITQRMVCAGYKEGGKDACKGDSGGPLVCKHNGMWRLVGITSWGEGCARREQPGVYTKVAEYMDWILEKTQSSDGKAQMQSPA
T1 sequence (P03952 20-390 partner limits assumed): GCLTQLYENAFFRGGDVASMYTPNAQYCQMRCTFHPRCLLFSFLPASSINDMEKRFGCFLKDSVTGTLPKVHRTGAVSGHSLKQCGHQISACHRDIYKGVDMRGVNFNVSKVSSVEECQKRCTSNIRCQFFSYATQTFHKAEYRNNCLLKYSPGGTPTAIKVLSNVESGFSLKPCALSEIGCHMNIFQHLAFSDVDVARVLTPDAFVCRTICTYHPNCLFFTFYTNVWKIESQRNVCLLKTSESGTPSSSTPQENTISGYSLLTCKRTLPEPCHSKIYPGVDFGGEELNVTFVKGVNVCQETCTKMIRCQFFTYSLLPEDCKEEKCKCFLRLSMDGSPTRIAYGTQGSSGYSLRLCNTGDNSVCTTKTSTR

Row | Compound | IC50 [nM]
1 | Cn1nc(NCc2cnc3[nH]cc(Cl)c3c2)c2cc(Cc3ccc4ncc(Cl)cc4c3)ccc21 [Example 2, N-((3-chloro-1H-pyrrolo[2,3-b]pyridin-5-yl)methyl)-5-((3-chloroquinolin-6-yl)methyl)-1-methyl-1H-indazol-3-amine] | 100 to 1000
2 | Clc1cnc2ccc(Cc3ccc4[nH]nc(NCc5cnc6[nH]cc(Cl)c6c5)c4c3)cc2c1 [Example 3, N-((3-chloro-1H-pyrrolo[2,3-b]pyridin-5-yl)methyl)-5-((3-chloroquinolin-6-yl)methyl)-1H-indazol-3-amine] | 100 to 1000
3 | Cc1cc(N)nc(C)c1CNc1nccc2nc(Cc3ccc4ncc(Cl)cc4c3)[nH]c12 [Example 4, N-((6-amino-2,4-dimethylpyridin-3-yl)methyl)-2-((3-chloroquinolin-6-yl)methyl)-3H-imidazo[4,5-c]pyridin-4-amine] | 1000 to 10000
4 | Fc1c(CNc2ncnc3nc(Cc4ccc5ncc(Cl)cc5c4)[nH]c23)ccc2[nH]cc(Cl)c12 [Example 7, N-((3-chloro-4-fluoro-1H-indol-5-yl)methyl)-8-((3-chloroquinolin-6-yl)methyl)-7H-purin-6-amine] | ≤ 100
5 | Cc1cc(N)nc(C)c1CNc1ncnc2nc(Cc3ccc4ncc(C(F)(F)F)cc4c3)[nH]c12 [Example 10, N-((6-amino-2,4-dimethylpyridin-3-yl)methyl)-8-((3-(trifluoromethyl)quinolin-6-yl)methyl)-7H-purin-6-amine] | ≤ 100
6 | FC(F)(F)c1cnc2ccc(Cc3nc4ncnc(NCc5cnc6[nH]cc(Cl)c6c5)c4[nH]3)cc2c1 [Example 15, N-((3-chloro-1H-pyrrolo[2,3-b]pyridin-5-yl)methyl)-8-((3-(trifluoromethyl)quinolin-6-yl)methyl)-7H-purin-6-amine] | 100 to 1000
7 | Clc1c[nH]c2ncc(CNc3ncnc4nc(Cc5ccc6ncccc6c5)[nH]c34)cc12 [Example 17, N-((3-chloro-1H-pyrrolo[2,3-b]pyridin-5-yl)methyl)-8-(quinolin-6-ylmethyl)-7H-purin-6-amine] | 100 to 1000
8 | Clc1cnc2ccc(Cc3cc4c(NCc5cnc6[nH]cc(Cl)c6c5)n[nH]c4cn3)cc2c1 [Example 20, N-((3-chloro-1H-pyrrolo[2,3-b]pyridin-5-yl)methyl)-5-((3-chloroquinolin-6-yl)methyl)-1H-pyrazolo[3,4-c]pyridin-3-amine] | 100 to 1000
9 | O=C(NCc1cc2c(Cl)c[nH]c2cc1F)c1ccc2c(c1)C(c1ccc3ncc(Cl)cc3c1)OC2 (stereo not shown) [Example 21, N-((3-chloro-6-fluoro-1H-indol-5-yl)methyl)-3-(3-chloroquinolin-6-yl)-1,3-dihydroisobenzofuran-5-carboxamide] | 100 to 1000

Second part, the compound after the results:

Row | IC50 [nM] | Compound
10 | 100 to 1000 | Clc1cnc2ccc(Cc3ccc4onc(NCc5cnc6[nH]cc(Cl)c6c5)c4c3)cc2c1 [Example 1, N-((3-chloro-1H-pyrrolo[2,3-b]pyridin-5-yl)methyl)-5-((3-chloroquinolin-6-yl)methyl)benzo[d]isoxazol-3-amine]
11 | ≤ 100 | Fc1cc2[nH]cc(Cl)c2cc1CNc1ncnc2nc(Cc3ccc4ncc(Cl)cc4c3)[nH]c12 [Example 5]
12 | ≤ 100 | Clc1cnc2ccc(Cc3nc4ncnc(NCc5n[nH]c6ccc(Cl)cc56)c4[nH]3)cc2c1 [Example 6, N-((5-chloro-1H-indazol-3-yl)methyl)-8-((3-chloroquinolin-6-yl)methyl)-7H-purin-6-amine]
13 | ≤ 100 | Clc1cnc2ccc(Cc3nc4ncnc(NCc5cnc6[nH]cc(Cl)c6c5)c4[nH]3)cc2c1 [Example 8, N-((3-chloro-1H-pyrrolo[2,3-b]pyridin-5-yl)methyl)-8-((3-chloroquinolin-6-yl)methyl)-7H-purin-6-amine]
14 | ≤ 100 | Cc1cc(N)nc(C)c1CNc1ncnc2cn(Cc3ccc4ncc(Cl)cc4c3)nc12 [Example 9, N-((6-amino-2,4-dimethylpyridin-3-yl)methyl)-2-((3-chloroquinolin-6-yl)methyl)-2H-pyrazolo[4,3-d]pyrimidin-7-amine]
15 | ≤ 100 | Fc1cc2[nH]cc(Cl)c2cc1CNc1ncnc2nc(Cc3ccc4ncc(C(F)(F)F)cc4c3)[nH]c12 [Example 11, N-((3-chloro-6-fluoro-1H-indol-5-yl)methyl)-8-((3-(trifluoromethyl)quinolin-6-yl)methyl)-7H-purin-6-amine]
16 | ≤ 100 | FC(F)(F)c1cnc2ccc(Cc3nc4ncnc(NCc5n[nH]c6ccc(Cl)cc56)c4[nH]3)cc2c1 [Example 12, N-((5-chloro-1H-indazol-3-yl)methyl)-8-((3-(trifluoromethyl)quinolin-6-yl)methyl)-7H-purin-6-amine]
17 | ≤ 100 | Fc1c(CNc2ncnc3nc(Cc4ccc5ncc(C(F)(F)F)cc5c4)[nH]c23)ccc2[nH]cc(Cl)c12 [Example 13, N-((3-chloro-4-fluoro-1H-indol-5-yl)methyl)-8-((3-(trifluoromethyl)quinolin-6-yl)methyl)-7H-purin-6-amine]
18 | ≤ 100 | Nc1nccc2cc(CNc3ncnc4nc(Cc5ccc6ncc(C(F)(F)F)cc6c5)[nH]c34)ccc12 [Example 14, 6-(((8-((3-(trifluoromethyl)quinolin-6-yl)methyl)-7H-purin-6-yl)amino)methyl)isoquinolin-1-amine]
19 | ≤ 100 | Cc1cc(N)nc(C)c1CNc1ncnc2nc(Cc3ccc4ncc(Cl)cc4c3)[nH]c12 [Example 19, N-((6-amino-2,4-dimethylpyridin-3-yl)methyl)-8-((3-chloroquinolin-6-yl)methyl)-7H-purin-6-amine]
